{"source": "patent US20160044917A1", "about": "“LOW ENVIRONMENTAL IMPACT PESTICIDE MADE FROM \"GRAS\" INGREDIENTS FOR USE AGAINST COQUI FROGS AND OTHER SPECIES” (priority 2015, published 2016)", "key": {"frogs": {"tested_on": "frogs", "assay": "Frog killing time with different concentrations", "type": "in vivo", "conditions": "concentrations from about 5% to about 10%", "experimental": "Additionally, this formulation killed 10 out of 10 frogs within about 15 minutes. More over, concentrations using proprionic acid ranging from about 5% to about 10% were lethal to the frogs in the test group."}, "common plants": {"tested_on": "common plants", "conditions": "citric acid 25%, three days after treatment, cited from earlier work"}, "human skin": {"tested_on": "human skin", "assay": "Contact of acid solution with human skin or hand", "type": "in vivo", "conditions": "solution with a pH of less than 0.5", "experimental": "As discussed above, AGIIS has relatively less dehydrating properties (such as charring sucrose) as compared to the saturated solution of CaSO4 in the same concentration of H2SO4. […] AGIIS has low volatility at room temperature and pressure.\nIn view of the need to find new phytogenic friendly alternatives for controlling the spread of Coqui frogs, a commercially available food sanitation product (i.e. Acidic Calcium Sulfate (“ACS”) was evaluated for inclusion in the current inventory of chemicals that can be applied as sprays. ACS and functional equivalents thereof are made from ingredients that are generally regarded as safe (“GRAS”), and is approved for use in food by the FDA and USDA. Although not wanting to be bound by theory, the efficacy of this product stems from its very unique characteristic of being able to donate a very high activity of hydrogen ions (low pH), while at the same time, having very low oxidative effects on plants and human skin. For example, a five (5) normal concentration of ACS having a pH of approximately zero may be held in the human hand without harm to the person holding the acid. In contrast, when very small amounts are applied to the skin of Coqui frogs it is quickly absorbed and respiration is immediately impaired with lethal results. […]"}}, "note": "Where two headings read alike, the source gives them in different places."}
{"compound": "CCC(=O)O", "note": "[propionic acid]", "values": [{"measurement": "lethality to the frogs in the test group", "setting": "frogs", "value": "lethal"}]}
{"compound": "O=C(O)CC(O)(CC(=O)O)C(=O)O", "note": "[citric acid]", "values": [{"measurement": "phytotoxicity rating", "setting": "common plants; bromeliad", "value": "moderate"}, {"measurement": "phytotoxicity rating", "setting": "common plants; calathea", "value": "severe"}, {"measurement": "phytotoxicity rating", "setting": "common plants; dendrobium orchid", "value": "moderate"}, {"measurement": "phytotoxicity rating", "setting": "common plants; eggplants", "value": "severe"}, {"measurement": "phytotoxicity rating", "setting": "common plants; guava plant", "value": "moderate"}, {"measurement": "phytotoxicity rating", "setting": "common plants; leatherleaf fern", "value": "moderate"}, {"measurement": "phytotoxicity rating", "setting": "common plants; passion fruit", "value": "slight"}, {"measurement": "phytotoxicity rating", "setting": "common plants; payaya", "value": "slight"}, {"measurement": "phytotoxicity rating", "setting": "common plants; streptocarpus", "value": "severe"}]}
{"compound": "O=S(=O)(O)O", "note": "[sulfuric acid]", "values": [{"measurement": "effect on hand put into the solution", "setting": "human skin", "value": "an irritation would occur"}]}
